Patent publication US20240009170A1, “INHIBITION OF GLYCOGEN SYNTHASE KINASE-3 (GSK-3)” (Brown University, priority 2020, published 2024)

Tests used:
SW480 tumor cells = test: Co-culture of NK-92 natural killer cells and SW480 tumor cells; type: cell-based, Human
Procedure: Immune cell co-culture experiments. Co-culture experiments were conducted with GFP+ SW480 or HCT-116 colorectal cancer cells and either NK-92 natural killer cells or TALL-104 T cells in a 48-well plate, in the presence or absence of 9-ING-41. HCT-116 cells were labeled using CellTracker™ Green CMFDA (5-chloromethylfluorescein diacetate), immune cells (NK-92, TALL-104) were labeled using CellTracker™ Blue CMAC Dye (7-amino-4-chloromethylcoumarin), and ethidium homodimer-1 (EthD-1) was used as a marker of cell death (Invitrogen, Thermo Fisher Scientific, Waltham, MA, USA).
Co-culture experiments were conducted with GFP+ SW480 colorectal cancer cells and either NK-92 natural killer cells or TALL-104 T cells at various effector/target ratios in a 48-well plate, in the presence or absence of 9-ING-41.
The inventors co-cultured green fluorescent SW480 tumor cells with NK-92 natural killer cells at a 1:1 effector target cell ratio (E:T) for twenty-four hours and imaged by fluorescence microscopy. Ethidium homodimer was used to visualize dead cells. The inventors obtained photographic images of the co-cultured cells.
An average baseline amount of NK-92-mediated tumor cell killing of about 39% occurred in the absence of drug.

[1] = test system: human colorectal cell lines (HCT-116, HT-29, KM12C); test: Cytokine, chemokine and growth factor profile of tumor cell culture supernatant (Luminex 200); type: cell-based
Procedure: Collection of cell culture supernatants used in cytokine measurements. Cells were plated at 3.5×10^4 cells in a 48-well plate (Thermo Fisher Scientific, Waltham, MA, USA) in complete medium and incubated at 37° C. with 5% CO2. At twenty-four hours after plating, almost all the tumor cells were adherent to the bottom of the flask and the complete medium was replaced with drug-containing medium. Subsequently, the culture supernatants were collected after forty-eight hours of incubation and were frozen at −80° C. until the measurement of cytokines was performed. The day of analysis, samples were thawed and centrifuged to remove cellular debris.
Human cytokine profiling. Human cell line culture supernatants were analyzed using an R&D systems Human Premixed Multi-Analyte Kit (R&D Systems, Inc., Minneapolis, MN, USA) and a Luminex 200 Instrument (LX200-XPON-RUO, Luminex Corporation, Austin, TX, USA) according to the manufacturer's instructions. Sample levels of TNF-α, 4-1BB/TNFRSF9/CD137, IL-8/CXCL8, Ferritin, IFN-β, IL-10, CCL2/JE/MCP-1, VEGF, CXCL13/BLC/BCA-1, IFN-γ, CCL20/MIP-3 α, CCL3/MIP-1 α, CCL22/MDC, CCL4/MIP-1 β, Fas Ligand/TNFSF6, IL-17/IL-17A, IL-2, BAFF/BLyS/TNFSF13B, GM-CSF, CXCLS/ENA-78, TRANCE/TNFSF11/RANK L, CXCL9/MIG, G-CSF, IFN-γ R1/CD119, VEGFR3/Flt-4, C-Reactive Protein/CRP, CXCL11/I-TAC, IL-21, CXCL14/BRAK, IL-6, Fas/TNFRSF6/CD95, TRAIL R3/TNFRSF10C, IL-4, CCL5/RANTES, PD-L1/B7-H1, CCL7/MCP-3/MARC, Chitinase 3-like 1, CXCL10/IP-10/CRG-2, IL-1β/IL-1F2, IL-7, Prolactin, CCL8/MCP-2, TRAIL R2/TNFRSF10B, M-CSF, IL-15, Granzyme B, IFN-α, TREM-1, IL-12/IL-23 p40, TRAIL/TNFSF10, CCL11/Eotaxin, and IL-18/IL-1F4. Sample values are reported in picograms per milliliter (pg/mL).
Cells were treated with 9-ING-41, a selective and potent small molecule inhibitor of GSK-3β, at doses up to 100 μM for seventy-two hours to determine IC10, IC30, IC50, and IC70. Cytokine, chemokine, and growth factor levels were analyzed in the tumor cell culture supernatants after treatment at IC10, IC30, IC50, and IC70 for forty-eight hours using a Luminex 200 multiplexing instrument.

TALL-104 T cells = test: Western blot analysis, TALL-104; type: cell-based, Human
Procedure: (§1) Western blot analysis. Cells were plated in a 6-well plate and incubated overnight before the spent media was replaced with drugged media. Drug treatment lasted for indicated durations. Protein was extracted using radioimmunoprecipitation (RIPA) assay buffer (Cat #R0278, Sigma-Aldrich, St. Louis, MO) containing cOmplete™ Mini, EDTA-free Protease Inhibitor Cocktail (Cat #4693159001, Roche, Basel, Switzerland). Denaturing sample buffer was added, samples were boiled at 95 degrees for 10 minutes. An equal amount of protein lysate was electrophoresed through NuPAGE™ 4 to 12%, Bis-Tris, 1.5 mm, Mini Protein Gels (Invitrogen, Waltham, MA, USA) then transferred to PVDF membranes. The PVDF membrane was blocked with 5% non-fat milk (Sigma-Aldrich, St. Louis, MO, USA) in 1× TTBS. Primary antibodies were incubated with the transferred PVDF membrane in blocking buffer at 4° C. overnight. Secondary antibodies used included goat anti-rabbit IgG (H+L) secondary antibody, HRP (Cat #31460, Invitrogen, Waltham, MA, USA) and goat anti-mouse IgG (H+L) secondary antibody, HRP (Cat #31430, Invitrogen, Waltham, MA, USA). Signal was detected using a Syngene Imaging System.
9-ING-41 treatment decreases survival factor expression while increasing PD-L1 levels in colorectal cancer cell lines. To elucidate the mechanism behind the differential effects of 9-ING-41 on either colorectal cancer or immune cells in co-culture and cytokine profiling assays, the inventors performed Western blot analyses on tumor and immune cells treated with 9-ING-41 over a 72-hour time course.
Treating cells from colorectal cancer cell lines with 1 μM 9-ING-41 decreases Surivin, NF-κB p65, and IκBα while increasing PD-L1 levels in, 9-ING-41 treatment of immune cells increases NIK. Western blot analysis of HCT-116 and HT-29 colorectal cancer cells for expression of indicated proteins after increasing durations of 9-ING-41 treatment (0-72 hours). Western blot analysis of TALL-104 T cells for expression of indicated proteins after increasing durations of 9-ING-41 treatment (0-72 hours). […]

[2] = test system: NK-92 natural killer cells; test: Western blot analysis of Mcl-1, NK-92; type: cell-based, Human; conditions: through the 48-hour endpoint
Procedure: as §1
Treating cells from colorectal cancer cell lines with 1 μM 9-ING-41 decreases Surivin, NF-κB p65, and IκBα while increasing PD-L1 levels in, 9-ING-41 treatment of immune cells increases NIK. […]

GSK-3 = conditions: cited from earlier work

Which “Natural Killer activity” value (SW480 tumor cells; IC50 dose, 1:1 E:T, 24 hours) does the source give for `Cn1cc(C2=C(c3coc4ccc(F)cc34)C(=O)NC2=O)c2cc3c(cc21)OCO3` [9-ING-41] here?
Its value is “stimulation of Natural Killer activity”.

And the “natural killer (NK-92) cell killing of colorectal cancer cells” value (SW480 tumor cells; compared to controls without drug treatment)?
The value was “significant increase”.

What about the “shed PD-L1” value ([1]; colorectal cancer cell lines, regression slope analysis, 48 hours) of the same molecule?
The value was “decreases”.

What about the overall cytokine levels ([1]; increasing doses (IC10-IC70), 48 hours) of the same molecule?
The overall cytokine levels was “decreasing trend”.

What about the VEGF ([1]; increasing doses, 48 hours, supernatant) of the same molecule?
The VEGF was “most prominently decreased”.

And the “expression of chemokine CXCL14 (BRAK)” value ([1]; increasing doses, supernatant)?
Its value is “increase”.

What about the “macrophage colony-stimulating factor (M-CSF)” value ([1]; supernatant) of the same molecule?
Its value is “decrease”.

What about the PD-1 expression (TALL-104 T cells; 0-72 hours) of the same molecule?
The PD-1 expression was “decreased”.

What about the “Survivin and NIK” value (TALL-104 T cells; 0-72 hours) of the same molecule?
The value was “surprising increases”.

What about the “NF-KB, IKK β, IKBα, pIKBα, and Bcl-2” value (TALL-104 T cells; as treatment duration increased) of the same molecule?
The value was “no significant changes”.

What about the Mcl-1 protein expression [2] of the same molecule?
The Mcl-1 protein expression was “did not observe a significant decrease”.

And the GSK-3 isoforms inhibited (GSK-3)?
The GSK-3 isoforms inhibited was “inhibits both α and β isoforms”.

What about the “potency compared with other GSK-3 inhibitors” value (GSK-3) of the same molecule?
The value was “significantly more potent”.
